Experimental data published in patent US9096601B2 (CSPC Zhongqi Pharmaceutical Technology (Shijiazhuang) Co., …, priority 2010, dated 2015).
pIC50: −log10 of the molar value.

How the values were obtained:
[1] = target: EGFR L858R mutant type (Homo sapiens (Human), UniProt P00533, L858R); test: Kinase inhibitory activity, isotopic labeling (γ-33P-ATP); assay type: biochemical; settings: ATP 200 μM (Km)
Description: (§1) The object of this assay was to test the inventive compounds for the kinase inhibitory activity in vitro. In this assay, an isotopic labeling method was used to label the γ phosphate group on ATP. […] Staurosporine was used as a reference molecule (or referred to as a positive control). […] The IC50 value can be obtained by the calculation of the inhibitory rates at a series of different concentrations of the tested compounds.
(§2) To a reaction tube were successively added the buffer solution (8 mM MOPS, pH 7.0, 0.2 mM EDTA, 10 mM MnCl2), the kinase to be tested (5-10 mU) (EGFR/ALK/BTK/c-KIT/c-SRC/MET/PDGFRα/VEGFR2), the substrate for the kinase to be tested (a reference material), 10 mM of the solution of magnesium acetate and γ-^33 P-ATP, and different concentrations of the tested compounds. […] The reaction was terminated with […] of the 3% phosphate buffer solution. 10 μL of the reaction liquid was titrated on the Filtermat A membrane. The membrane was washed with 75 mM of the phosphate solution thrice (5 minutes each time), and then with methanol once, and finally dried. The membrane was subjected to a scintillation counting. The value of the scintillation counting reflected the phosphorylation level of the substrate and therefore could characterize the inhibition of the kinase activity.

[2] = target: EGFR L858R/T790M double mutant type (Homo sapiens (Human), UniProt P00533, L858R/T790M); test: as above; assay type: biochemical; settings: ATP 45 μM (Km)
Sequence of EGFR L858R/T790M double mutant type (P00533 25-1210 T790M/L858R): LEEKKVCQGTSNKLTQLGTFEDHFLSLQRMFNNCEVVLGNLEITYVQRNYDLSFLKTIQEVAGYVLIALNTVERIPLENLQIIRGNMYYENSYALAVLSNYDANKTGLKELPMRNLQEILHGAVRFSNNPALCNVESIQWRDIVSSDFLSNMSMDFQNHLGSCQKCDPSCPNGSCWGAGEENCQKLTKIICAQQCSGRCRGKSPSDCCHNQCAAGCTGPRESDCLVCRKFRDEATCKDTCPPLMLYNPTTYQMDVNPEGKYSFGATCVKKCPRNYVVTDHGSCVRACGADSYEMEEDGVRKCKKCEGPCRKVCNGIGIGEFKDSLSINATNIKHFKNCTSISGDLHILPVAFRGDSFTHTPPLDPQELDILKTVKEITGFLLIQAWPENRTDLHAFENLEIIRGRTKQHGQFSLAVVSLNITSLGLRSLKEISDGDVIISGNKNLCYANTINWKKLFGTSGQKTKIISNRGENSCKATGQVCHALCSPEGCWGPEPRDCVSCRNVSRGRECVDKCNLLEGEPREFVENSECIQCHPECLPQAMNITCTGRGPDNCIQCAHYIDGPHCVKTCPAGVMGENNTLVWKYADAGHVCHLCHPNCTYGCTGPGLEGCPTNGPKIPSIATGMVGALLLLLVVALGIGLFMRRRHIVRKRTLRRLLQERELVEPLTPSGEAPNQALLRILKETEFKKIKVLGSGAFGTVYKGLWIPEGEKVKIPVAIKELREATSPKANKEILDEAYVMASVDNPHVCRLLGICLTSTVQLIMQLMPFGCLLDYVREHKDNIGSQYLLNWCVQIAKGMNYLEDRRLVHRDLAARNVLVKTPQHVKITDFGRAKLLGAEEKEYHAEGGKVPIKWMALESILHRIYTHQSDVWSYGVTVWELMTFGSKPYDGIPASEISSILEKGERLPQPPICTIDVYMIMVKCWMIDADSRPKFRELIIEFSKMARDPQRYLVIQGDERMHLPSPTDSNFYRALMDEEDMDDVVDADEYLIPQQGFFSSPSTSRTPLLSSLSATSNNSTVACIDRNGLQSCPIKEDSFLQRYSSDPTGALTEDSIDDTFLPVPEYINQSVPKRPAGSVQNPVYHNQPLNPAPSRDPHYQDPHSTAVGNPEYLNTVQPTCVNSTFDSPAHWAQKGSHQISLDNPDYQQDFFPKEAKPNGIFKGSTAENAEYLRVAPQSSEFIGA
Description: as §1, §2

[3] = target: EGFR wild type (Homo sapiens (Human), UniProt P00533); test: as above; assay type: biochemical; settings: ATP 10 μM (Km)
Description: as §1, §2

[4] = target: ALK (Homo sapiens (Human), UniProt Q9UM73); test: as above; assay type: biochemical; settings: compound at 10 μM
Sequence of ALK (Q9UM73 19-1620): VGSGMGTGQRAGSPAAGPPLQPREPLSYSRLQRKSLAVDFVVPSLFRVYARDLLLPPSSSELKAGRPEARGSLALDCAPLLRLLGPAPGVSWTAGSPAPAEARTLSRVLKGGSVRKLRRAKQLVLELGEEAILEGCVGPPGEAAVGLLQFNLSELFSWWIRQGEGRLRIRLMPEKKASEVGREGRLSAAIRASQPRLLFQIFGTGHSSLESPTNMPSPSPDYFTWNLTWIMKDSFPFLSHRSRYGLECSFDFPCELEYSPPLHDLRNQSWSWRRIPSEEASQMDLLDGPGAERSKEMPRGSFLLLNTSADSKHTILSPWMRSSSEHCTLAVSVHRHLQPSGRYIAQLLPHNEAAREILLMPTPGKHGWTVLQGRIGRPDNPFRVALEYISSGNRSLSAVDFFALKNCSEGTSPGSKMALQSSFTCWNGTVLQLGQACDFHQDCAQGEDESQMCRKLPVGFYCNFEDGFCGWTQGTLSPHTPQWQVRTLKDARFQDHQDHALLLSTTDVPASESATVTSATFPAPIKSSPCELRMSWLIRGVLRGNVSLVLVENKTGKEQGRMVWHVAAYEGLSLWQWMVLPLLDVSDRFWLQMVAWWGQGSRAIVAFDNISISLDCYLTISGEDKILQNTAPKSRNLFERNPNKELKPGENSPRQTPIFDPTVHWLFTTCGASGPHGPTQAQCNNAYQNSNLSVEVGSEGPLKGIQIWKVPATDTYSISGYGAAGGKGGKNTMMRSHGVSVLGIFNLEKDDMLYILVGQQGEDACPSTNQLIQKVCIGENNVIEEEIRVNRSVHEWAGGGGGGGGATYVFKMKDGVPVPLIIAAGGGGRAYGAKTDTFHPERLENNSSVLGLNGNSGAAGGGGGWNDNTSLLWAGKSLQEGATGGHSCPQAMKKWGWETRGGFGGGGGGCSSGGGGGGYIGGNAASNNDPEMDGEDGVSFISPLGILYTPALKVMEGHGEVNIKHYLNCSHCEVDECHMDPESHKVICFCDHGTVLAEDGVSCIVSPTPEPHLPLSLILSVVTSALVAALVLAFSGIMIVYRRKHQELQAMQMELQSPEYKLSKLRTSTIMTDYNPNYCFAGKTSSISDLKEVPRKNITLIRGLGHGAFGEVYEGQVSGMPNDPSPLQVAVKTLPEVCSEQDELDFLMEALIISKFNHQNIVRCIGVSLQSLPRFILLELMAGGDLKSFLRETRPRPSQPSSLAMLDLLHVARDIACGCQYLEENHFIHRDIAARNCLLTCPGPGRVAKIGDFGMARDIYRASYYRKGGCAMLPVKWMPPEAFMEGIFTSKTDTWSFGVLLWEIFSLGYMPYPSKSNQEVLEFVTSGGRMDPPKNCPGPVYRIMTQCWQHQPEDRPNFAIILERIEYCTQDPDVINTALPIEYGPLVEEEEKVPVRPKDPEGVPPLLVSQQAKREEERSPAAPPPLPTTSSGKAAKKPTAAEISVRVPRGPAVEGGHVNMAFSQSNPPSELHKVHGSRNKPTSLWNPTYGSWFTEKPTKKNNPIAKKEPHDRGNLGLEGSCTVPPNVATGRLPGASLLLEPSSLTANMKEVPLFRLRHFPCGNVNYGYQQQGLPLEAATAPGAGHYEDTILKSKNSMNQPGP

[5] = target: BTK (Homo sapiens (Human), UniProt Q06187); test: as above; assay type: biochemical; settings: compound at 10 μM
[6] = target: FLT3 (Homo sapiens (Human), UniProt P36888); test: as above; assay type: biochemical; settings: compound at 10 μM
Sequence of FLT3 (P36888 27-993): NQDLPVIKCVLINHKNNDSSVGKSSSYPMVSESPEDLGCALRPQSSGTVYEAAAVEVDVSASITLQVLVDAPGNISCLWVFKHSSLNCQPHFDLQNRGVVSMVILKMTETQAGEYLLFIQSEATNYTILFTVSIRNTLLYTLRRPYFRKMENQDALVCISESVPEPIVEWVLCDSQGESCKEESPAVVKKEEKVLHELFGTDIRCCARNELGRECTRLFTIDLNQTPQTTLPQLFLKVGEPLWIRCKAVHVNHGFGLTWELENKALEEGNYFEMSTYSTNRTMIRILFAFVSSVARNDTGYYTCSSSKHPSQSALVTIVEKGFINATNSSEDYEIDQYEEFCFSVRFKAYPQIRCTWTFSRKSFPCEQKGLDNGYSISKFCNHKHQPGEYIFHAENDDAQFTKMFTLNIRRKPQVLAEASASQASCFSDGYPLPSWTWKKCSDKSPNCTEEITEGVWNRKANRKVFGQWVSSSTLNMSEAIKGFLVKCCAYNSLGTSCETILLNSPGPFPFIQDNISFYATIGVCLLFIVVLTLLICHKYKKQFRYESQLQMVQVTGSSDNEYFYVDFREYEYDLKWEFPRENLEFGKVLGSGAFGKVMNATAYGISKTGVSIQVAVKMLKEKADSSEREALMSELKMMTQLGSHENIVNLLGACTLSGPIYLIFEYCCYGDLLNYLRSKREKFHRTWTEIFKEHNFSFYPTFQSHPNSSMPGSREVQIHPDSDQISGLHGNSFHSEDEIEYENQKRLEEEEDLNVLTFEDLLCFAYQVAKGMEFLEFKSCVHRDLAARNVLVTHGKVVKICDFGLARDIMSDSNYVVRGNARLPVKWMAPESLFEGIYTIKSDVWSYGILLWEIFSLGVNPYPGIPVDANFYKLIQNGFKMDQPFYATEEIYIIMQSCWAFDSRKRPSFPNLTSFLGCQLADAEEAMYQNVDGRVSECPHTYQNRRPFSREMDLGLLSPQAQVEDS

[7] = target: MET (Homo sapiens (Human), UniProt P08581); test: as above; assay type: biochemical; settings: compound at 10 μM
[8] = target: PDGFRα (Homo sapiens (Human), UniProt P16234); test: as above; assay type: biochemical; settings: compound at 10 μM
[9] = target: VEGFR2 (Homo sapiens (Human), UniProt P35968); test: as above; assay type: biochemical; settings: ATP 90 μM (Km)
In short: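 Kinase 5-10 mU + substrate + γ-33P-ATP/10 mM Mg acetate + cpd, in 8 mM MOPS pH 7.0, 0.2 mM EDTA, 10 mM MnCl2. Stop w/ 3% phosphate; Filtermat A, 75 mM phosphate washes ×3, MeOH; scintillation count. IC50 from % inhibition.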

[10] = target: c-KIT (Homo sapiens (Human), UniProt P10721); test: as above; assay type: biochemical; settings: compound at 10 μM
Sequence of c-KIT (P10721 26-976): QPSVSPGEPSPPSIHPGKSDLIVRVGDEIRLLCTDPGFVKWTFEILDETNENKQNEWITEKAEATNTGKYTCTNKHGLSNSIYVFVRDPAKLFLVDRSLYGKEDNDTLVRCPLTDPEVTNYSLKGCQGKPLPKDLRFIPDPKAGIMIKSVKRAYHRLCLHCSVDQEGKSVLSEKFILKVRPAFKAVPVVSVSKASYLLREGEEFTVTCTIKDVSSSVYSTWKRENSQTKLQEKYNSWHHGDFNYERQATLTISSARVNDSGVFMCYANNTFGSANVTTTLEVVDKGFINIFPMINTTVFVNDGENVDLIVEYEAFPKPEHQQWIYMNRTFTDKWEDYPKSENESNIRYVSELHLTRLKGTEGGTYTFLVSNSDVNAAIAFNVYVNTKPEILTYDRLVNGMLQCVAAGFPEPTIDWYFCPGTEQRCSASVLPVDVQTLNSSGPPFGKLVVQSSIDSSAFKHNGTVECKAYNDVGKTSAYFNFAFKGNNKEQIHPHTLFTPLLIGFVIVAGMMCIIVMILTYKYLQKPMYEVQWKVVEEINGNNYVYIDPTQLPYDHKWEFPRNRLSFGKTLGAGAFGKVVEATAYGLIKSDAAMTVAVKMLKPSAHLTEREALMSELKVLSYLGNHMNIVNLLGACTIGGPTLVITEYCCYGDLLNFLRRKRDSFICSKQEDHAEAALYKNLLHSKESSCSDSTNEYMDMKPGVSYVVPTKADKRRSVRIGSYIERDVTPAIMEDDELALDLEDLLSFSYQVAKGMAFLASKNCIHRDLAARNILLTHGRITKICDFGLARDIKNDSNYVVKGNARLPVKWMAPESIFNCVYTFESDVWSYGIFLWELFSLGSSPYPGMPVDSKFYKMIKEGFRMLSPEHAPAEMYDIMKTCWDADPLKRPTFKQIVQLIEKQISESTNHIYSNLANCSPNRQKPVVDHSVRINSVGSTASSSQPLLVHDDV

[11] = target: c-SRC (Homo sapiens (Human), UniProt P12931); test: as above; assay type: biochemical; settings: compound at 10 μM
[12] = test system: non-small cell lung carcinoma cell strain H1975 (EGFR L858R/T790M mutation); test: In-vitro tumor cell proliferation inhibition, MTT; assay type: cell-based, human; settings: 72 hours
[13] = test system: non-small cell lung carcinoma cell strain H292 (EGFR WT); test: In-vitro tumor cell proliferation inhibition, MTT; assay type: cell-based, human; settings: 72 hours
[14] = test system: non-small cell lung carcinoma cell strain HCC827; test: In-vitro tumor cell proliferation inhibition, MTT; assay type: cell-based, human; settings: 72 hours
In short: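 Cells grown in RPMI-1640 with 10% FBS, seeded overnight (HCC827 at 6×10^4 cells/ml), then exposed to graded compound concentrations for 72 h at 37 °C, 5% CO2, with 1% DMSO solvent control. MTT absorbance at 570 nm; inhibition relative to control; triplicate wells, ≥3 repeats.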

[15] = test system: non-small cell lung carcinoma cell strain PC-9 (EGFR delE746-A750 deletion mutation); test: In-vitro tumor cell proliferation inhibition, MTT; assay type: cell-based, human; settings: 72 hours

SMILES	IC50 [1]	IC50 [2]	IC50 [3]	The kinase activity inhibitory rate (%) by the tested compounds at 10 μM ALK [4]	The kinase activity inhibitory rate (%) by the tested compounds at 10 μM BTK [5]	The kinase activity inhibitory rate (%) by the tested compounds at 10 μM FLT3 [6]	The kinase activity inhibitory rate (%) by the tested compounds at 10 μM MET [7]	The kinase activity inhibitory rate (%) by the tested compounds at 10 μM PDGFRα [8]	pIC50 [9]	The kinase activity inhibitory rate (%) by the tested compounds at 10 μM c-KIT [10]	The kinase activity inhibitory rate (%) by the tested compounds at 10 μM c-SRC [11]	pIC50 [12]	pIC50 [13]	pIC50 [14]	pIC50 [15]
CC(C)n1c(Nc2cccc(C(F)(F)F)c2)nc2cnc(Nc3ccc(N4CCN(C)CC4)cc3)nc21 [Compounds 8-16]	0.001 µM	0.012 µM	0.003 µM	17%	57%	45%	93%	39%	< 6.00	62%	90%	5.74	6.89	9.70	7.77
COc1cccc(Nc2nc3cnc(Nc4ccc(N5CCN(C)CC5)cc4)nc3n2C(C)C)c1 [Compounds 8-17]	0.001 µM	0.004 µM	0.004 µM	35%	100%	86%	52%	72%	< 6.00	89%	99%	5.72	7.53	9.70	8.60
COc1ccc(Nc2nc3cnc(Nc4ccc(N5CCN(C)CC5)cc4)nc3n2C(C)C)cc1 [Compounds 8-18]	0.005 µM	0.057 µM	0.03 µM	13%	56%	75%	7%	60%	7.68	76%	93%	< 5.00	6.27	6.93	7.46
CC(C)n1c(Nc2ccc(NC(=O)Nc3ccc(F)c(Cl)c3)cc2)nc2cnc(Nc3ccc(N4CCN(C)CC4)cc3)nc21 [Compounds 8-21]	0.005 µM	0.005 µM	0.011 µM	97%	92%	78%	99%	100%	< 6.00	101%	98%	5.14	5.94	7.29	7.07
CC(C)n1c(Nc2ccc(C(=O)Nc3cccc(F)c3)cc2)nc2cnc(Nc3ccc(N4CCN(C)CC4)cc3)nc21 [Compounds 8-22]	0.01 µM	0.087 µM	0.117 µM	70%	63%	87%	69%	43%	< 6.00	10%	98%	< 5.00	5.76	< 6.00	5.55
CN1CCN(c2ccc(Nc3ncc4nc(Nc5ccccc5)n(C5CC5)c4n3)cc2)CC1 [Compounds 8-23]	0.002 µM	0.041 µM	0.007 µM	3%	30%	68%	1%	28%	< 6.00	26%	83%	< 5.00	6.81	9.70	7.44
CN1CCN(c2ccc(Nc3ncc4nc(Nc5ccccc5)n(C)c4n3)cc2)CC1 [Compounds 8-24]	0.003 µM	0.522 µM	0.012 µM	8%	14%	75%	0%	29%	< 6.00	48%	75%	< 5.00	6.77	9.70	8.22
CN1CCN(c2ccc(Nc3ncc4nc(Nc5ccccc5)[nH]c4n3)cc2)CC1 [Compounds 8-25]	0.005 µM	0.458 µM	0.029 µM	13%	45%	32%	0%	21%	< 6.00	8%	78%	< 5.00	5.78	7.28	6.59
CC(C)n1c(Nc2ccc(C(F)(F)F)cc2)nc2cnc(Nc3ccc(N4CCN(C)CC4)cc3)nc21 [Compounds 8-27]	0.005 µM	0.054 µM	0.034 µM	30%	74%	83%	36%	68%	8.05	93%	98%	< 5.00	5.38	7.08	6.94
CC(C)n1c(Nc2cccnc2)nc2cnc(Nc3ccc(N4CCN(C)CC4)cc3)nc21 [Compounds 8-29]	0.004 µM	0.064 µM	0.031 µM	15%	60%	99%	50%	42%	< 6.00	36%	97%	< 5.00	6.74	8.14	8.00
